Counter-ions that a name gives are not always drawn.
Legend:
Assay type in all cases: physicochemical
[1] = Particle size distribution by laser diffraction (Malvern apparatus); details: for Particle size d (v, 0.05): volume diameter of 5% of the particles; for Particle size d (v, 0.1): volume diameter of 10% of the particles; for Particle size d (v, 0.5): volume diameter of 50% of the particles; for Particle size d (v, 0.9): volume diameter of 90% of the particles
Method: (§1) The particle size was determined by laser diffraction using a Malvern apparatus. The parameters taken into consideration were the VD in microns of 5%, 10%, 50%, and 90% of the particles expressed as d(v,0.05), d(v,0.1), d(v, 0.5), and d(v, 0.9), respectively, which correspond to the mass diameter assuming a size independent density for the particles. The Specific Surface Area (SSA) was determined by BET nitrogen adsorption using a Coulter SA3100 apparatus as a mean of three determinations.
(§2) Different batches of formoterol fumarate dihydrate were milled in a jet mill apparatus at different operating conditions in order to obtain different particle size distribution. The micronized batches were characterised in terms of particle size distribution and Specific Surface Area as reported in Example 1.

[2] = Specific Surface Area by BET nitrogen adsorption (Coulter SA3100); details: mean of three determinations
Method: as §1, §2

[3] = Agglomerates after mixing with a carrier of coarser particles, detected by Near Infrared Spectrophotometer with microscope; details: batch added to carrier of coarser particles; suitable time of mixing, or ten hours of mixing where agglomerates remained
Method: (§3) The various batches were then added to a carrier made of coarser particles.
as §3

Structure (SMILES)	Particle size d (v, 0.05) [1]	Particle size d (v, 0.1) [1]	Particle size d (v, 0.5) [1]	Particle size d (v, 0.9) [1]	SSA (Specific Surface Area) [2]	Agglomerates of the active ingredient in the formulation after mixing [3]
COc1ccc(C[C@@H](C)NC[C@H](O)c2ccc(O)c3[nH]c(=O)ccc23)cc1 [carmoterol hydrochloride batch 1]	0.70 μm	0.94 μm	2.16 μm	4.34 μm	9.70 m^2/g	no agglomerates were observed
COc1ccc(C[C@@H](C)NC[C@H](O)c2ccc(O)c3[nH]c(=O)ccc23)cc1 [carmoterol hydrochloride batch 2]	0.67 μm	0.85 μm	2.03 μm	4.31 μm	9.68 m^2/g	no agglomerates were observed
COc1ccc(C[C@@H](C)NC[C@H](O)c2ccc(O)c3[nH]c(=O)ccc23)cc1 [carmoterol hydrochloride batch 3]	0.58 μm	0.59 μm	1.32 μm	2.75 μm	18.11 m^2/g	agglomerates where still present
COc1ccc(C[C@@H](C)NC[C@H](O)c2ccc(O)c3[nH]c(=O)ccc23)cc1 [carmoterol hydrochloride batch 4]	0.55 μm	0.68 μm	1.58 μm	3.40 μm	10.74 m^2/g	agglomerates where still present
COc1ccc(C[C@@H](C)NC[C@H](O)c2ccc(O)c3[nH]c(=O)ccc23)cc1 [carmoterol hydrochloride batch 5]	0.48 μm	0.70 μm	1.45 μm	2.75 μm	11.91 m^2/g	agglomerates where still present
COc1ccc(C[C@@H](C)NC[C@H](O)c2ccc(O)c3[nH]c(=O)ccc23)cc1 [carmoterol hydrochloride batch 6]	0.59 μm	0.73 μm	1.61 μm	3.25 μm	11.80 m^2/g	

Reference: patent publication US20100055192A1, “MICRONIZED PARTICLES OF LOW-DOSAGE STRENGTH ACTIVE AGENTS FOR POWDER FORMULATIONS FOR INHALATION” (Chiesi Farmaceutici S.p.A., priority 2007, published 2010)
